Patent US11701439B2, “DAZA chelators as ligands in liver imaging” (X-NUCLEAR DIAGNOSTICS GMBH, priority 2017, dated 2023)

Experiments:
[1] = physiological conditions; demetalation e.g. by apo-transferrin; cited from earlier work
[2] = Stability / storability of the ligands as labeling precursors; assay type: physicochemical
embryonated ostrich egg = test: Administration in ostrich egg and PET/CT examination (in ovo test); conditions: in vivo in the incubated egg, approx. 10 MBq in PBS injected intravascularly
Experimental: The accumulation in the liver of the compounds according to the invention can be examined in a so-called ovo test, i.e. in vivo in an incubated ostrich egg. […] 2. Administration in Ostrich Egg and PET/CT Examination To carry out an intravascular injection in an embryonic egg, it is first necessary to find an […] blood vessel. This is done using a light-intensive […] lamp (Tempo No. 119, Brecker Ltd. & Co. KG, Ruethen, Germany or Powerlux […], Lyon Technologies Inc., Chula Vista, Calif., USA), with which the egg is illuminated through the eggshell in similar manner to a diaphanoscopy. After locating a large-caliber vessel, an approximately 2.5×5 cm rectangular piece is machined from the approximately 2 mm thick egg shell (Dremel® 3000, Dremel Europe-Bosch Powertools B.V., Breda, the Netherlands). Particular care must be taken to maintain the intactness of the inner membrane of the eggshell, which corresponds to the chorioallantoic membrane (CAM). After removing the eggshell lid-again using the […] lamp-the yolk vessel is punctured with a narrow 27G cannula and this is fixed to the eggshell with adhesive strips. The access thus created now allows both CT contrast media and radiopharmaceuticals to be injected via a short length of plastic tubing (Smiths MedicalTM 800/100/100 Smiths, Smiths Medical International Ltd, Ashford, Great Britain). […]

CCc1cccc(CC)c1NC(=O)CN(CC(=O)O)CC(=O)O [EHIDA]
stability of the 68Ga complex of the ligand [1]: do not form sufficiently stable ^68Ga complexes

COc1ccc(CNC2CN(Cc3ccc(OC)cc3O)CCN(Cc3ccc(OC)cc3O)C2)c(O)c1 [TMeOHB-DAZA, tris-N,N′,N″(4-methoxy-2-hydroxybenzyl)-1,4-diazepan-6-amine]
stability of the ligand (storable as precursor for labeling with 68Ga or 64Cu) [2]: stable

CCOc1ccc(CNC2CN(Cc3ccc(OCC)cc3[O-])CCN(Cc3ccc(OCC)cc3[O-])C2)c([O-])c1.[68Ga+3] [^68Ga-[TEOHB-DAZA], ^68Ga[tris-N,N′,N″(4-ethoxy-2-hydroxybenzyl)-1,4-diazepan-6-amine]]
accumulation in the liver (embryonated ostrich egg): almost exclusive accumulation in the liver

CCOc1ccc(C[C@@H](CN(CCN(CC(=O)O)CC(=O)O)CC(=O)O)N(CC(=O)O)CC(=O)O)cc1 [EOB-DTPA]
stability of the 68Ga complex of the ligand [1]: do not form sufficiently stable ^68Ga complexes

CCOc1ccc(CNC2CN(Cc3ccc(OCC)cc3O)CCN(Cc3ccc(OCC)cc3O)C2)c(O)c1 [TEOHB-DAZA, tris-N,N′,N″(4-ethoxy-2-hydroxybenzyl)-1,4-diazepan-6-amine]
stability of the ligand (storable as precursor for labeling with 68Ga or 64Cu) [2]: stable
